Data: ChEMBL document CHEMBL1255306, “Potential basis for amphotericin B resistance in Aspergillus terreus” (2008)
In brackets after ≈: the same amount, converted by molar mass. Activity calls are given as the source filed them. The rule behind the calls is not given here.

How the values were obtained:
[1] = tested on: Aspergillus fumigatus; assay: Antimicrobial activity against […] Aspergillus fumigatus assessed as catalase activity after 24 to 48 hrs; format: functional, organism-based
[2] = tested on: Aspergillus terreus; assay: Antimicrobial activity against AMB-resistant Aspergillus terreus assessed as high malonaldehyde activity at 10 ug/ml after 8 hrs by thiobarbituric acid test; format: functional, organism-based
[3] = tested on: Aspergillus fumigatus; assay: Antimicrobial activity against […] Aspergillus fumigatus assessed as high malonaldehyde activity at 5 ug/ml after 8 hrs by thiobarbituric acid test; format: functional, organism-based
[4] = tested on: Aspergillus terreus; assay: Antimicrobial activity against Aspergillus terreus protoplast by CLSI M38-A broth microdilution method; format: functional
[5] = tested on: Aspergillus terreus; assay: Antimicrobial activity against AMB-resistant Aspergillus terreus assessed as catalase activity after 24 to 48 hrs; format: functional, organism-based
[6] = tested on: Aspergillus terreus; assay: Antimicrobial activity against Aspergillus terreus conidia by CLSI M38-A broth microdilution method; format: functional
[7] = tested on: Aspergillus fumigatus; assay: Antimicrobial activity against […] Aspergillus fumigatus assessed as high malonaldehyde activity at 10 ug/ml after 8 hrs by thiobarbituric acid test; format: functional, organism-based
[8] = tested on: Aspergillus terreus; assay: Antimicrobial activity against AMB-resistant Aspergillus terreus assessed as high malonaldehyde activity at 5 ug/ml after 8 hrs by thiobarbituric acid test; format: functional, organism-based

C[C@@H]1[C@H](O)[C@@H](C)/C=C/C=C/C=C/C=C/C=C/C=C/C=C/[C@H](O[C@@H]2O[C@H](C)[C@@H](O)[C@H](N)[C@@H]2O)C[C@@H]2O[C@](O)(C[C@@H](O)C[C@@H](O)[C@H](O)CC[C@@H](O)C[C@@H](O)CC(=O)O[C@H]1C)C[C@H](O)[C@H]2C(=O)O [AMPHOTERICIN B]
Activity [1]: inactive
Activity [2]: Active
Activity [3]: Active
MIC [4]: 1.41 µg/mL (≈ 1.53 µM)
Activity [5]: Active
MIC [6]: 1.7 µg/mL (≈ 1.84 µM)
Activity [7]: Active
Activity [8]: Active
